For this experiment, the target named is T1, fms-like receptor tyrosine kinase-3 (FLT3) (Homo sapiens, UniProt P36888).
T1 sequence (P36888 27-993): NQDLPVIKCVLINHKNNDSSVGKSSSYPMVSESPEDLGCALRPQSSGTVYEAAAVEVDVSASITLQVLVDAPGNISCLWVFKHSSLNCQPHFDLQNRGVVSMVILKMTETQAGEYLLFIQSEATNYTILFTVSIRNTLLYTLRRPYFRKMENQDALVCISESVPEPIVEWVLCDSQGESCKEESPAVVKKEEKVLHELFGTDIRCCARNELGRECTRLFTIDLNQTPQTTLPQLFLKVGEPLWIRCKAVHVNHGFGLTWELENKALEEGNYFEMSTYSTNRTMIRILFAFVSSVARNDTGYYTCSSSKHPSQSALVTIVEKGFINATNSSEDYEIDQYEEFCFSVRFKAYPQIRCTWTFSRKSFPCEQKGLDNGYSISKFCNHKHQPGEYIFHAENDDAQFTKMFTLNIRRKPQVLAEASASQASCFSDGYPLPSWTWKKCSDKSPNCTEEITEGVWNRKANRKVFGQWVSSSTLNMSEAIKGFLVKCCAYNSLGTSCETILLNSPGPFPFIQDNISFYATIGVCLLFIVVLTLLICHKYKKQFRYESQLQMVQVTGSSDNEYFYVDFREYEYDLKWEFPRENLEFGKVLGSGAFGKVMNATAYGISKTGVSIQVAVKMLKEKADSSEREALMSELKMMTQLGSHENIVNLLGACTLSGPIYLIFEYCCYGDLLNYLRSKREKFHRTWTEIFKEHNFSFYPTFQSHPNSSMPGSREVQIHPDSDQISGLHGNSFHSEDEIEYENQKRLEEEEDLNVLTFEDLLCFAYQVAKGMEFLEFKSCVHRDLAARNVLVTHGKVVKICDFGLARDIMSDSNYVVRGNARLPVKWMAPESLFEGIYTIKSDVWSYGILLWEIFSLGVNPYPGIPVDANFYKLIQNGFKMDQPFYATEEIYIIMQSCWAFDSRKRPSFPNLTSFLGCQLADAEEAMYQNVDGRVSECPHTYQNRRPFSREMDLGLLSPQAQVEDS
The format is biochemical.

Here are results for 1 compound from publication PMC3724770 (ACS combinatorial science, 2012).

Molecules are shown by their SMILES.

`CCCCNc1ncnc2c(N3CCNCC3)c[nH]c12` [compound 9, N-butyl-7-(piperazin-1-yl)-5H-pyrrolo[3,2-d]pyrimidin-4-amine] came in with an IC50 of 1.92 µM.

What is called IC50 is the concentration that gives 50% inhibition. Read a low IC50 as inhibition by little substance.
